Experimental data taken from patent US8501770B2 (ArQule, Inc., priority 2009, dated 2013).
Read-outs that look alike come from different tables or passages of the source.

Target: Full-length inactive AKT1 (Homo sapiens, UniProt P31749)
Assay: Inactive Akt Alpha Screen Assay
Assay type: biochemical
Summary of the method: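 AlphaScreen read-out (excitation 640 nm, emission 570 nm) after 90 min incubation at room temperature in the dark. Signal comes from crosstide phosphorylation by AKT1, which was activated by added PDK1, MAPKAPK2, ATP and lipid vesicles, captured via phospho-AKT substrate antibody and streptavidin beads.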

[1] = values not marked with "*", read-out: Akt1 IC50, (AlphaScreen)
[2] = AlphaScreen assay (values not marked with *), read-out: Akt1 IC50, (AlphaScreen) (μM) (or if marked with “*” HTRF assay)

Full-length inactive AKT1, sequence (P31749 whole entry): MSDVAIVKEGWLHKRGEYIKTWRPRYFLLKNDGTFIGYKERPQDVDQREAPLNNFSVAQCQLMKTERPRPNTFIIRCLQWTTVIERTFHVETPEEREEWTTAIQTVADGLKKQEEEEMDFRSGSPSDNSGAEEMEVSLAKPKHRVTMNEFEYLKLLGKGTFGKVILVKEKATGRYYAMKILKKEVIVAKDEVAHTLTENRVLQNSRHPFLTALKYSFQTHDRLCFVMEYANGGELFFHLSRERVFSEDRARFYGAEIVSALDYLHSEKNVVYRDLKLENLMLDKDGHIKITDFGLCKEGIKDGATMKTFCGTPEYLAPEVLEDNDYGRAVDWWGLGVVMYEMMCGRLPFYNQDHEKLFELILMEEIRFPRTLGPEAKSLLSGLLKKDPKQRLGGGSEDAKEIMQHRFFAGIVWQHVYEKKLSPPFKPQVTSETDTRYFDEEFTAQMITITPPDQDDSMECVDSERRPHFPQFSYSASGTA

**Q.** `CC(=O)Nc1ccc(-c2cnc3c(c2)nc(-c2cccnc2N)n3-c2cccc(CNC(=O)c3cccc(F)c3)c2)cc1` [Example 402, N-(3-(6-(4-acetamidophenyl)-2-(2-aminopyridin-3-yl)-3H-imidazo[4,5-b]pyridin-3-yl)benzyl)-3-fluorobenzamide] was tested. Which IC50 [1] did it give?
**A.** The IC50 was 2.83 µM.

**Q.** Which IC50 [1] does the source give for `CS(=O)(=O)Nc1ccc(-c2ccc3nc(-c4cccnc4N)n(-c4ccc(C5(N)CCC5)cc4)c3n2)cc1` [Example 403, N-(4-{3-[4-(1-aminocyclobutyl)phenyl]-2-(2-aminopyridin-3-yl)-3H-imidazo[4,5-b]pyridin-5-yl}phenyl)methanesulfonamide] here?
**A.** Its IC50 is 0.0045 µM.

**Q.** Which IC50 [1] does the source give for `Nc1ncccc1-c1nc2ccc(-c3ccc(N4CCOCC4)nc3)nc2n1-c1ccc(C2(N)CCC2)cc1` [Example 404, 3-{3-[4-(1-aminocyclobutyl)phenyl]-5-(6-morpholin-4-ylpyridin-3-yl)-3H-imidazo[4,5-b]pyridin-2-yl}pyridin-2-amine] here?
**A.** The IC50 was 0.0078 µM.

**Q.** `CC(C)C(=O)Nc1cccc(-c2ccc3nc(-c4cccnc4N)n(-c4ccc(C5(N)CCC5)cc4)c3n2)c1` [Example 405, N-(3-{3-[4-(1-aminocyclobutyl)phenyl]-2-(2-aminopyridin-3-yl)-3H-imidazo[4,5-b]pyridin-5-yl}phenyl)-2-methylpropanamide] was tested. Which IC50 [1] did it give?
**A.** Its IC50 is 0.013 µM.

**Q.** `Nc1ncccc1-c1nc2ccc(-c3cccc(NS(=O)(=O)C4CC4)c3)nc2n1-c1ccc(C2(N)CCC2)cc1` [Example 406, N-(3-{3-[4-(1-aminocyclobutyl)phenyl]-2-(2-aminopyridin-3-yl)-3H-imidazo[4,5-b]pyridin-5-yl}phenyl)cyclopropanesulfonamide] was tested. Which IC50 [1] did it give?
**A.** Its IC50 is 0.0026 µM.

**Q.** `Cc1ccc(S(=O)(=O)Nc2cccc(-c3ccc4nc(-c5cccnc5N)n(-c5ccc(C6(N)CCC6)cc5)c4n3)c2)cc1` [Example 407, N-(3-{3-[4-(1-aminocyclobutyl)phenyl]-2-(2-aminopyridin-3-yl)-3H-imidazo[4,5-b]pyridin-5-yl}phenyl)-4-methylbenzenesulfonamide] was tested. Which IC50 [1] did it give?
**A.** The IC50 was 0.0028 µM.

**Q.** `Nc1ncccc1-c1nc2ccc(-c3cc[nH]c3)nc2n1-c1ccc(C2(N)CCC2)cc1` [Example 408, 3-{3-[4-(1-aminocyclobutyl)phenyl]-5-(1H-pyrrol-3-yl)-3H-imidazo[4,5-b]pyridin-2-yl}pyridin-2-amine] was tested. Which IC50 [1] did it give?
**A.** The IC50 was 0.0024 µM.

**Q.** `CN(C)c1cccc(-c2ccc3nc(-c4cccnc4N)n(-c4ccc(C5(N)CCC5)cc4)c3n2)c1` [Example 409, 3-{3-[4-(1-aminocyclobutyl)phenyl]-5-[3-(dimethylamino)phenyl]-3H-imidazo[4,5-b]pyridin-2-yl}pyridin-2-amine] was tested. Which IC50 [1] did it give?
**A.** The IC50 was 0.0053 µM.

**Q.** For `CN(C)c1ccc(-c2ccc3nc(-c4cccnc4N)n(-c4ccc(C5(N)CCC5)cc4)c3n2)cc1` [Example 410, 3-{3-[4-(1-aminocyclobutyl)phenyl]-5-[4-(dimethylamino)phenyl]-3H-imidazo[4,5-b]pyridin-2-yl}pyridin-2-amine], which IC50 [1] is on record?
**A.** Its IC50 is 0.0097 µM.

**Q.** `COc1cc(OC)cc(-c2ccc3nc(-c4cccnc4N)n(-c4ccc(C5(N)CCC5)cc4)c3n2)c1` [Example 411, 3-{3-[4-(1-aminocyclobutyl)phenyl]-5-(3,5-dimethoxyphenyl)-3H-imidazo[4,5-b]pyridin-2-yl}pyridin-2-amine] was tested. Which IC50 [1] did it give?
**A.** The IC50 was 0.0045 µM.

**Q.** `COCc1cccc(-c2ccc3nc(-c4cccnc4N)n(-c4ccc(C5(N)CCC5)cc4)c3n2)c1` [Example 412, 3-{3-[4-(1-aminocyclobutyl)phenyl]-5-[3-(methoxymethyl)phenyl]-3H-imidazo[4,5-b]pyridin-2-yl}pyridin-2-amine] was tested. Which IC50 [1] did it give?
**A.** The IC50 was 0.004 µM.

**Q.** How did the IC50 [1] turn out when `COc1ccc(F)c(-c2ccc3nc(-c4cccnc4N)n(-c4ccc(C5(N)CCC5)cc4)c3n2)c1` [Example 413, 3-{3-[4-(1-aminocyclobutyl)phenyl]-5-(2-fluoro-5-methoxyphenyl)-3H-imidazo[4,5-b]pyridin-2-yl}pyridin-2-amine] was run?
**A.** The IC50 was 0.007 µM.

**Q.** For `COc1ccc(-c2ccc3nc(-c4cccnc4N)n(-c4ccc(C5(N)CCC5)cc4)c3n2)cc1OC` [Example 414, 3-{3-[4-(1-aminocyclobutyl)phenyl]-5-(3,4-dimethoxyphenyl)-3H-imidazo[4,5-b]pyridin-2-yl}pyridin-2-amine], which IC50 [1] is on record?
**A.** Its IC50 is 0.0049 µM.

**Q.** For `Nc1ncccc1-c1nc2cccnc2n1-c1ccc(C2(N)CCC2)cc1` [Example 415, 3-{3-[4-(1-aminocyclobutyl)phenyl]-3H-imidazo[4,5-b]pyridin-2-yl}pyridin-2-amine], which IC50 [1] is on record?
**A.** The IC50 was 0.013 µM.

**Q.** For `Nc1ncccc1-c1nc2ccc(-c3ccc4scnc4c3)nc2n1-c1ccc(C2(N)CCC2)cc1` [Example 416, 3-{3-[4-(1-aminocyclobutyl)phenyl]-5-(1,3-benzothiazol-5-yl)-3H-imidazo[4,5-b]pyridin-2-yl}pyridin-2-amine], which IC50 [1] is on record?
**A.** Its IC50 is 0.0042 µM.

**Q.** For `COc1cc(-c2ccc3nc(-c4cccnc4N)n(-c4ccc(C5(N)CCC5)cc4)c3n2)ccc1N` [Example 417, 3-{3-[4-(1-aminocyclobutyl)phenyl]-5-(4-amino-3-methoxyphenyl)-3H-imidazo[4,5-b]pyridin-2-yl}pyridin-2-amine], which IC50 [1] is on record?
**A.** The IC50 was 0.002 µM.

**Q.** How did the IC50 [1] turn out when `Nc1ncccc1-c1nc2ccc(-c3cc[nH]n3)nc2n1-c1ccc(C2(N)CCC2)cc1` [Example 418, 3-{3-[4-(1-aminocyclobutyl)phenyl]-5-(1H-pyrazol-3-yl)-3H-imidazo[4,5-b]pyridin-2-yl}pyridin-2-amine] was run?
**A.** The IC50 was 0.0082 µM.

**Q.** With `COc1cc(-c2ccc3nc(-c4cccnc4N)n(-c4ccc(C5(N)CCC5)cc4)c3n2)ccc1O` [Example 419, 4-{3-[4-(1-aminocyclobutyl)phenyl]-2-(2-aminopyridin-3-yl)-3H-imidazo[4,5-b]pyridin-5-yl}-2-methoxyphenol] as the compound, how does the IC50 [1] read?
**A.** Its IC50 is 0.0027 µM.

**Q.** Which IC50 [1] does the source give for `COc1cc(F)cc(-c2ccc3nc(-c4cccnc4N)n(-c4ccc(C5(N)CCC5)cc4)c3n2)c1` [Example 420, 3-{3-[4-(1-aminocyclobutyl)phenyl]-5-(3-fluoro-5-methoxyphenyl)-3H-imidazo[4,5-b]pyridin-2-yl}pyridin-2-amine] here?
**A.** The IC50 was 0.0054 µM.

**Q.** Which IC50 [1] does the source give for `COc1cccc(-c2ccc3nc(-c4cccnc4N)n(-c4ccc(C5(N)CCC5)cc4)c3n2)c1F` [Example 421, 3-{3-[4-(1-aminocyclobutyl)phenyl]-5-(2-fluoro-3-methoxyphenyl)-3H-imidazo[4,5-b]pyridin-2-yl}pyridin-2-amine] here?
**A.** The IC50 was 0.017 µM.

**Q.** Which IC50 [1] does the source give for `CCCOc1cccc(-c2ccc3nc(-c4cccnc4N)n(-c4ccc(C5(N)CCC5)cc4)c3n2)c1` [Example 422, 3-{3-[4-(1-aminocyclobutyl)phenyl]-5-(3-propoxyphenyl)-3H-imidazo[4,5-b]pyridin-2-yl}pyridin-2-amine] here?
**A.** Its IC50 is 0.011 µM.

**Q.** `Nc1ncccc1-c1nc2ccc(-c3cc4ccccc4o3)nc2n1-c1ccc(C2(N)CCC2)cc1` [Example 423, 3-{3-[4-(1-aminocyclobutyl)phenyl]-5-(1-benzofuran-2-yl)-3H-imidazo[4,5-b]pyridin-2-yl}pyridin-2-amine] was tested. Which IC50 [1] did it give?
**A.** The IC50 was 0.0066 µM.

**Q.** How did the IC50 [1] turn out when `Nc1ncccc1-c1nc2ccc(-c3ccc(O)cc3)nc2n1-c1ccc(C2(N)CCC2)cc1` [Example 424, 4-{3-[4-(1-aminocyclobutyl)phenyl]-2-(2-aminopyridin-3-yl)-3H-imidazo[4,5-b]pyridin-5-yl}phenol] was run?
**A.** The IC50 was 0.0093 µM.

**Q.** How did the IC50 [1] turn out when `Nc1ncccc1-c1nc2ccc(-c3nccs3)nc2n1-c1ccc(C2(N)CCC2)cc1` [Example 425, 3-{3-[4-(1-aminocyclobutyl)phenyl]-5-(1,3-thiazol-2-yl)-3H-imidazo[4,5-b]pyridin-2-yl}pyridin-2-amine] was run?
**A.** The IC50 was 0.01 µM.

**Q.** With `Nc1ncccc1-c1nc2ccc(-c3cccc(OC(F)(F)F)c3)nc2n1-c1ccc(C2(N)CCC2)cc1` [Example 426, 3-{3-[4-(1-aminocyclobutyl)phenyl]-5-[3-(trifluoromethoxy)phenyl]-3H-imidazo[4,5-b]pyridin-2-yl}pyridin-2-amine] as the compound, how does the IC50 [1] read?
**A.** The IC50 was 0.005 µM.

**Q.** Which IC50 [1] does the source give for `Nc1ncccc1-c1nc2ccc(-c3ccsc3)nc2n1-c1ccc(C2(N)CCC2)cc1` [Example 427, 3-{3-[4-(1-aminocyclobutyl)phenyl]-5-(3-thienyl)-3H-imidazo[4,5-b]pyridin-2-yl}pyridin-2-amine] here?
**A.** Its IC50 is 0.01 µM.

**Q.** Which IC50 [1] does the source give for `COc1cc(-c2ccc3nc(-c4cccnc4N)n(-c4ccc(C5(N)CCC5)cc4)c3n2)ccc1F` [Example 428, 3-{3-[4-(1-aminocyclobutyl)phenyl]-5-(4-fluoro-3-methoxyphenyl)-3H-imidazo[4,5-b]pyridin-2-yl}pyridin-2-amine] here?
**A.** Its IC50 is 0.0058 µM.

**Q.** How did the IC50 [1] turn out when `COc1ccc(-c2ccc3nc(-c4cccnc4N)n(-c4ccc(C5(N)CCC5)cc4)c3n2)cc1O` [Example 429, 5-{3-[4-(1-aminocyclobutyl)phenyl]-2-(2-aminopyridin-3-yl)-3H-imidazo[4,5-b]pyridin-5-yl}-2-methoxyphenol] was run?
**A.** Its IC50 is 0.0095 µM.

**Q.** For `COc1cccc(-c2ccc3nc(-c4cccnc4N)n(-c4ccc(C5(N)CCC5)cc4)c3n2)c1O` [Example 430, 2-{3-[4-(1-aminocyclobutyl)phenyl]-2-(2-aminopyridin-3-yl)-3H-imidazo[4,5-b]pyridin-5-yl}-6-methoxyphenol], which IC50 [1] is on record?
**A.** Its IC50 is 0.0038 µM.

**Q.** For `Nc1ncccc1-c1nc2ccc(-c3cccc(N4CCCCC4)c3)nc2n1-c1ccc(C2(N)CCC2)cc1` [Example 431, 3-{3-[4-(1-aminocyclobutyl)phenyl]-5-(3-piperidin-1-ylphenyl)-3H-imidazo[4,5-b]pyridin-2-yl}pyridin-2-amine], which IC50 [1] is on record?
**A.** The IC50 was 0.018 µM.

**Q.** How did the IC50 [2] turn out when `CNC(=O)c1cc(F)cc(-c2ccc3nc(-c4cccnc4N)n(-c4ccc(C5(N)CCC5)cc4)c3n2)c1` [Example 432, 3-{3-[4-(1-aminocyclobutyl)phenyl]-2-(2-aminopyridin-3-yl)-3H-imidazo[4,5-b]pyridin-5-yl}-5-fluoro-N-methylbenzamide] was run?
**A.** The IC50 was 0.0064 µM.

**Q.** With `CN1CCOc2cc(-c3ccc4nc(-c5cccnc5N)n(-c5ccc(C6(N)CCC6)cc5)c4n3)ccc21` [Example 433, 3-{3-[4-(1-aminocyclobutyl)phenyl]-5-(4-methyl-3,4-dihydro-2H-1,4-benzoxazin-7-yl)-3H-imidazo[4,5-b]pyridin-2-yl}pyridin-2-amine] as the compound, how does the IC50 [2] read?
**A.** Its IC50 is 0.0018 µM.
